In the SangsterLogP compilation:

**Q.** Which logP does the source give for `c1ccc2c(c1)Cc1ccccc1O2` here?
**A.** The logP was 4.23.

**Q.** For `c1ccc(-c2ccccn2)nc1`, which logP is on record?
**A.** The logP was 1.67.

**Q.** For `c1ccc2cc3c(cc2c1)sc1ccccc13`, which logP is on record?
**A.** The logP was 5.07.

**Q.** For `c1ccc2c(c1)Oc1ccccc1O2`, which logP is on record?
**A.** Its logP is 4.19.

**Q.** For `c1ccc2c(c1)COC2`, which logP is on record?
**A.** The logP was 1.63.

**Q.** Which logP does the source give for `c1ccc2sccc2c1` here?
**A.** The logP was 3.26.

**Q.** Which logP does the source give for `c1csc(-c2cccs2)c1` here?
**A.** The logP was 3.75.

**Q.** With `c1ccc2c(c1)Sc1ccccc1S2` as the compound, how does the logP read?
**A.** The logP was 4.47.

remark: another data set of the same source

**Q.** For `c1ccc2c(c1)ccc1c3ccc4ccccc4c3[nH]c21`, which logP is on record?
**A.** The logP was 5.89.

**Q.** Which logP does the source give for `c1ccc2cc3cc4cc5ccccc5cc4cc3cc2c1` here?
**A.** Its logP is 7.11.

**Q.** For `c1cc2ccc3cc4cccc5ccc6cc(c1)c2c3c6c54`, which logP is on record?
**A.** Its logP is 7.04.

**Q.** With `c1cnc2c(c1)ccc1ncccc12` as the compound, how does the logP read?
**A.** Its logP is 1.93.

**Q.** For `c1ccc2c(c1)ccc1ncccc12`, which logP is on record?
**A.** Its logP is 3.25.

**Q.** Which logP does the source give for `c1ccc(-c2cccc(-c3ccccn3)n2)nc1` here?
**A.** Its logP is 1.96.

**Q.** Which logP does the source give for `c1cc(-c2ccncc2)ccn1` here?
**A.** The logP was 1.33.

**Q.** For `c1ccc2cc3c(ccc4c5ccccc5ccc34)cc2c1`, which logP is on record?
**A.** The logP was 7.11.

**Q.** With `c1ccc2c(c1)ccc1cccnc12` as the compound, how does the logP read?
**A.** Its logP is 3.25.

**Q.** Which logP does the source give for `c1ccc2cc3c4ccccc4c4ccccc4c3cc2c1` here?
**A.** Its logP is 7.11.

**Q.** Which logP does the source give for `c1ccc2cc3c(cc2c1)oc1ccccc13` here?
**A.** Its logP is 5.08.

**Q.** For `c1ccc(-c2cc3cccnc3c3ncccc23)cc1`, which logP is on record?
**A.** Its logP is 3.

**Q.** Which logP does the source give for `c1cnc2c(c1)ccc1cccnc12` here?
**A.** Its logP is 1.93.

**Q.** Which logP does the source give for `c1ccc2occc2c1` here?
**A.** Its logP is 2.53.

**Q.** For `c1ccc2c(c1)c1cccc3ccc4cccc2c4c31`, which logP is on record?
**A.** Its logP is 6.44.

**Q.** Which logP does the source give for `c1cc2ccc3ccc4ccc5cccc6c(c1)c2c3c4c56` here?
**A.** The logP was 7.04.

**Q.** Which logP does the source give for `c1ccc2c(c1)CCO2` here?
**A.** Its logP is 2.26.

**Q.** For `c1ccc(-c2c3ccccc3c(-c3ccccc3)c3ccccc23)cc1`, which logP is on record?
**A.** Its logP is 8.46.

**Q.** With `c1ccc2c(c1)cc1ccc3cccc4c5ccccc5c2c1c34` as the compound, how does the logP read?
**A.** Its logP is 7.71.

**Q.** Which logP does the source give for `c1ccc2c(c1)c1ccccc1c1ccccc21` here?
**A.** Its logP is 5.84.

**Q.** With `c1cc2c3c(c1)ccc1ccc4cccc-2c4c13` as the compound, how does the logP read?
**A.** The logP was 6.63.

**Q.** For `c1ccc2c(c1)ccc1c2ccc2ccc3ccccc3c21`, which logP is on record?
**A.** Its logP is 7.11.

**Q.** With `c1cnccn1` as the compound, how does the logP read?
**A.** The logP was -0.05.

**Q.** For `c1ccc2c(c1)ccc1c2ccc2c3ccccc3ccc21`, which logP is on record?
**A.** The logP was 7.11.

**Q.** Which logP does the source give for `C1=Cc2ccc3c4c(ccc1c24)C=C3` here?
**A.** Its logP is 5.07.

**Q.** Which logP does the source give for `c1ccc(-c2cccc(-c3ccccc3)n2)cc1` here?
**A.** Its logP is 4.6.

**Q.** Which logP does the source give for `c1ccc2c(c1)c1ccccc1c1c3ccccc3c3ccccc3c21` here?
**A.** The logP was 8.39.
